# Key:
# ObiH = molecular target: T1, ObiH (Burkholderia diffusa, UniProt Z9H1N4SZ53); test: LCMS detection of the β-hydroxy-α-amino acid product in coupled assay; format: biochemical
# T1 sequence (Z9H1N4SZ53 1-440): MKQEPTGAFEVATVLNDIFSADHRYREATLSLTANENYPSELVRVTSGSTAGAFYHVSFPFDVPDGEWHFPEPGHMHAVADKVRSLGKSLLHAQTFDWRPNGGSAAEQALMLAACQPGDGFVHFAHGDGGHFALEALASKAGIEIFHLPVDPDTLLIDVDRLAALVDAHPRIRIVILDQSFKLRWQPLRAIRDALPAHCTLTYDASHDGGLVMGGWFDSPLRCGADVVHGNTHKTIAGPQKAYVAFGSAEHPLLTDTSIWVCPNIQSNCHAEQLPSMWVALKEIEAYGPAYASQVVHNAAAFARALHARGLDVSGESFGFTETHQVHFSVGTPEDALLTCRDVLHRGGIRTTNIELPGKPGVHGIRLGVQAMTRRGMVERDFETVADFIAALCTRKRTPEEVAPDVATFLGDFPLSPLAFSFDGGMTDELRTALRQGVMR
# ObiF1 [1] = molecular target: T2, ObiF1 (Burkholderia diffusa, UniProt A0A5H1ZR44); test: coupled ObiF1/F2/D/H reconstitution, LCMS product ion counts; format: biochemical; conditions: made in situ by ObiH from phenylacetaldehyde and L-Thr; 1 µM holo-ObiF1, 5 mM ATP, 2,3-DHB, GSH or DTT trap, pH 7.5, room temperature
# T2 construct: full-length NRPS module C-A-PCP-TE-MLP (last residue Val1390), N-terminal His6, E. coli BL21(DE3), holo form (phosphopantetheinylated with Sfp and CoA); codon-optimised synthetic gene
# ObiF2 = molecular target: T3, ObiF2 (Burkholderia diffusa, UniProt Z9YLO8D081); test: coupled ObiF1/F2/D/H reconstitution, LCMS of acyl adenylate and product ions; format: biochemical
# T3 sequence (Z9YLO8D081 1-545): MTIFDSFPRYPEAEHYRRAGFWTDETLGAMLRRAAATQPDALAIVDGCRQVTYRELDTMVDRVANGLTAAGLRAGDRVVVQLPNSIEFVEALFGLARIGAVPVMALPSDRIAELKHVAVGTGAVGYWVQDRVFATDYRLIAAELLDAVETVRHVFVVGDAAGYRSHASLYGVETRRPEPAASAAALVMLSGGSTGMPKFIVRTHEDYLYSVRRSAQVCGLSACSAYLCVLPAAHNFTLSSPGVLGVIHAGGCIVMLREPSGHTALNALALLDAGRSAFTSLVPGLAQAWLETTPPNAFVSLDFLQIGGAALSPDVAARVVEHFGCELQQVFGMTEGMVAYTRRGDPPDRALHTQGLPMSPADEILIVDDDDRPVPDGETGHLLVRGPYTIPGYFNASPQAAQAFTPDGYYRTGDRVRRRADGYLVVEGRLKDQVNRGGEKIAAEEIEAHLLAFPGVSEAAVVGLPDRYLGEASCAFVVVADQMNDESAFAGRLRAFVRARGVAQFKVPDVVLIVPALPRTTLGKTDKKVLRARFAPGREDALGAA
# ObiF1 [2] = molecular target: T2, ObiF1; test: X-ray crystal structure, […] Å; format: binding; conditions: holo-ObiF1 co-crystallised with 2 mM ligand; bound in A domain active site (adenylate-forming conformation)
# [3] = molecular target: ObiF1-del1304 (ObiF1 C-A-PCP-TE, terminated after Leu1303, without the MLP domain) (Burkholderia diffusa)
compound,measurement,setting,value
"O=CCc1ccccc1 [1a, phenylacetaldehyde]",LCMS detection of the β-hydroxy-α-amino acid product in coupled assay,ObiH,"Starting from phenylacetaldehyde (PAA), the L-Thr transaldolase ObiH generates"
"N[C@H](C(=O)O)[C@H](O)Cc1ccccc1 [2a, β-OH-homoPhe]","coupled ObiF1/F2/D/H reconstitution, LCMS product ion counts",ObiF1 [1],"The best substrates for ObiF1 were β-hydroxy-α-amino acids (2a, 2b) derived from phenylacetaldehydes"
"O=C(O)c1ccccc1O [3c, 2-OH benzoic acid]","coupled ObiF1/F2/D/H reconstitution, LCMS of acyl adenylate and product ions",ObiF2,2-OH and 3-OH benzoic acids (3c and 3d) were both activated and converted efficiently
"N[C@H](C(=O)O)[C@H](O)Cc1ccc([N+](=O)[O-])cc1 [β-OH-p-NO2-homoPhe, (2S,3R)-β-hydroxy-p-nitro-homophenylalanine]","X-ray crystal structure, 3.0 Å",ObiF1 [2],β-OH-p-NO2-homoPhe binds in the A domain active site
"ObiF1 MLP domain, residues 1304-1390, co-expressed in trans from the construct ObiF1 rbs1303/4 (domain or fragment)","product ion counts by LCMS in the ObiF1/F2/D/H reconstitution assay, protein sample rbs1303/4 (C-A-PCP-TE co-expressed with the MLP domain), no MLP added (fold lower than WT)",[3],4

# Source: publication PMC6668435, “The structural basis of N-acyl-α-amino-β-lactone formation catalyzed by a nonribosomal peptide synthetase” (Nature Communications, 2019)
